In patent publication US8278460B2, “Substituted benzimidazoles” (Concert Pharmaceuticals, Inc., priority 2009, dated 2012):

How the values were obtained:
[1] = Metabolic stability in human liver microsomes; assay type: in vitro ADME; details: for % Parent Remaining (30 min) Ave ± SD: 2.0 mg/mL human liver microsomes, 2 mM NADPH, pH 7.4, 37° C., average of 3 experiments
Experimental: Human liver microsomes (20 mg/mL) were available from Xenotech, LLC (Lenexa, Kans.). β-nicotinamide adenine dinucleotide phosphate, reduced form (NADPH), magnesium chloride (MgCl2), and dimethyl sulfoxide (DMSO) are available from Sigma-Aldrich.
7.5 mM stock solutions of test compound 102 as well as of NS11394 were prepared in DMSO. The 7.5 mM stock solutions were diluted to 12.5 in acetonitrile (ACN). The 20 mg/mL human liver microsomes were diluted to 2.5 mg/mL in 0.1 M potassium phosphate buffer, pH 7.4, containing 3 mM MgCl2. The diluted microsomes were added to wells of a 96-well deep-well polypropylene plate in triplicate. A […] aliquot of the 12.5 test compound 102 was added to the microsomes and the mixture was pre-warmed for 10 minutes. Reactions were initiated by addition of pre-warmed NADPH solution. The final reaction volume was 0.5 mL and contained 2.0 mg/mL human liver microsomes, 0.25 test compound, and 2 mM NADPH in 0.1 M potassium phosphate buffer, pH 7.4, and 3 mM MgCl2. The reaction mixtures were incubated at 37° C., and […] aliquots were removed at 0, 5, 10, 20, and 30 minutes and added to shallow-well 96-well plates which contain […] of ice-cold ACN with internal standard to stop the reactions. The plates were stored at 4° C. for 20 minutes after which […] of water was added to the wells of the plate before centrifugation to pellet precipitated proteins. Supernatants were transferred to another 96-well plate and analyzed for amounts of parent remaining by LC-MS/MS using an AB SCIEX QTRAP® 5500. Testing was done in triplicate.
The in vitro t1/2s for test compounds were calculated from the slopes of the linear regression of % parent remaining (ln) vs incubation time relationship: in vitro t1/2=0.693/k k=−[slope of linear regression of % parent remaining (ln) vs incubation time]. Data analysis was performed using Microsoft Excel Software.
The testing was done in triplicate and the values shown in the table reflect the average of 3 experiments. […]

[2] = system: inflammatory and neuropathic pain-like behaviors in animal models; details: cited from earlier work
rodent anxiety models = details: in vivo; cited from earlier work
GABAA α3 receptors = target: T1, GABAA α3 receptors (Homo sapiens, UniProt P18507+P34903); details: cited from earlier work
T1 sequence (P34903 29-492): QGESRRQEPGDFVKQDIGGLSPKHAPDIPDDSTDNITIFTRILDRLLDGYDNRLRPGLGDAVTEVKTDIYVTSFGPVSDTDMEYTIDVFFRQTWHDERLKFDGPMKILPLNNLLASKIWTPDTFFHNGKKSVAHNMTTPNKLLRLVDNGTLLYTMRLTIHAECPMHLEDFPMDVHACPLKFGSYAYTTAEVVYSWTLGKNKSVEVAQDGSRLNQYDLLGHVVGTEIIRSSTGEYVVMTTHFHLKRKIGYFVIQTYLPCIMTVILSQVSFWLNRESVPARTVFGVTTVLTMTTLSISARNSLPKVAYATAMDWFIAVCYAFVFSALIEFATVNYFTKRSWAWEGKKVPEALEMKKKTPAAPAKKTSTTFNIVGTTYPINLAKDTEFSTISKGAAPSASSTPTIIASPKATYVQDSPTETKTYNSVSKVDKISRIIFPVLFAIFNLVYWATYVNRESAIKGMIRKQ
T1 sequence (P18507 40-467 limits assumed): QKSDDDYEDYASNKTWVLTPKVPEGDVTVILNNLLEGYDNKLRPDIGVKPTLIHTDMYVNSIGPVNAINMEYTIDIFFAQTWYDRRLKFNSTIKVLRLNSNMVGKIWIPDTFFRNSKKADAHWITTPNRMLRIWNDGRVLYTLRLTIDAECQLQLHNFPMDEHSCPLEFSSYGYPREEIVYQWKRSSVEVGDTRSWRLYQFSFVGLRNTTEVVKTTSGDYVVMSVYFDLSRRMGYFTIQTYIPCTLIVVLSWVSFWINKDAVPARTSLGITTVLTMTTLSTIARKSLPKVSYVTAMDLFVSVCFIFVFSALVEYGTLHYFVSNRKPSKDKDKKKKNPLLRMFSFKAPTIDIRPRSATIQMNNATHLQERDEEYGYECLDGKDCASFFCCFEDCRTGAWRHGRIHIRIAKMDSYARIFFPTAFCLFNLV
T1 sequence (P47870 25-512 partner limits assumed): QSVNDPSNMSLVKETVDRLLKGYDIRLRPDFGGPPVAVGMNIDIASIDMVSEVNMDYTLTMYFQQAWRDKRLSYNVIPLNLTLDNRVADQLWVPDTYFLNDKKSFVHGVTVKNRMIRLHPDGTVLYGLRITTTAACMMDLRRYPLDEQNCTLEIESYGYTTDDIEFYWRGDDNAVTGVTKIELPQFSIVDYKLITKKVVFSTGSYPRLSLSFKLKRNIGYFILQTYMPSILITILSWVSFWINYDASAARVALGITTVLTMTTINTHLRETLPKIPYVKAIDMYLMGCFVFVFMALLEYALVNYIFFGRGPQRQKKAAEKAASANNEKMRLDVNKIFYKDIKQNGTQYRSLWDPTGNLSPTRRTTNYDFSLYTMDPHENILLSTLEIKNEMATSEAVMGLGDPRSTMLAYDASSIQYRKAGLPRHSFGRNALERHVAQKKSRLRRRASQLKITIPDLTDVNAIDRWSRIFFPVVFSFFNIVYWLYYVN

[3] = animal models, oral administration

Structure (SMILES) | % Parent Remaining (30 min) Ave ± SD [1] [%] | half-life ([1]; human, human liver microsomes, pH 7.4, in vitro t1/2 from linear regression of ln % parent remaining vs incubation time, NC = not calculable due to <20% metabolism in HLM, read-out: t1/2 (min) Ave ± SD) [min] | reversal of inflammatory and neuropathic pain-like behaviors [2, 3] | tolerability [2, 3] | dependence issues ([2]; in vivo) | efficacy in rodent anxiety models (rodent anxiety models) | efficacy at GABAA α3 receptors (GABAA α3 receptors)
[2H]C([2H])([2H])C(O)(c1ccc2c(c1)ncn2-c1cccc(-c2ccccc2C#N)c1)C([2H])([2H])[2H] [Compound 102, 3′-(5-(2-Hydroxy-1,1,1,3,3,3-d6-propan-2-yl)-1H-benzo[d]imidazol-1-yl)biphenyl-2-carbonitrile] | 101 ± 8.7 | – | – | – | – | – | –
CC(C)(O)c1ccc2c(c1)ncn2-c1cccc(-c2ccccc2C#N)c1 [NS11394, 3′-[5-(1-hydroxy-1-methylethyl)-1H-benzimidazol-1-yl]biphenyl-2-carbonitrile] | 77 ± 3.7 | 95 ± 35 | completely reverse | well tolerated | No dependence issues were observed | potent and highly effective | high efficacy
